Experimental data: PubChem BioAssay (NCI)
Values joined by “and” are separate entries in the source; they are usually repeats but may differ in a detail not shown here. Identical values can stand only once.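 These data come from cells grown in 96-well plates and exposed to compound for 48 hours at five concentrations. The concentration for 50% growth inhibition is given as GI50. TGI: total growth inhibition.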 Where a SMILES comes first, the peptide text is derived from it. [ ]: non-standard residue; d: D form. The star is where a group is joined. ξ: configuration not given here. NMeN = CN[C@@H](CC(N)=O)C(=O)O; NMeV = CN[C@H](C(=O)O)C(C)C; ξNMeV = CNC(C(=O)O)C(C)C; Boc = CC(C)(C)OC(=O)*; ξNMeA = CNC(C)C(=O)O

How the values were obtained:
Experiment in all cases: NCI tumour cell line growth inhibition, 48 h
[1] = tested on: DU-145 prostate
[2] = tested on: PC-3 prostate
[3] = tested on: T-47D breast
[4] = tested on: BT-549 breast
[5] = tested on: NCI/ADR-RES ovarian
[6] = tested on: HS 578T breast
[7] = tested on: DLD-1 colon
[8] = tested on: DMS 114 small cell lung
[9] = tested on: M19-MEL melanoma
[10] = tested on: DMS 273 small cell lung

SMILES | TGI [1] | TGI [2] | TGI [3] | TGI [4] | TGI [5] | TGI [6] [µM] | TGI [7] [µM] | TGI [8] [µM] | TGI [9] [µM] | GI50 [1] | GI50 [2] | GI50 [3] | GI50 [4] | GI50 [5] | GI50 [6] | TGI [10] [µM]
C=C(C)CN(CC#N)CC(=C)C | > 100 µM | > 100 µM | > 100 µM | > 100 µM | > 100 µM | > 100 |  |  |  |  |  |  |  |  |  | 
Cc1ccc(NC(=O)CCC/C(CC(=O)c2ccc(Br)cc2)=N/NC(=O)CC#N)cc1 |  |  |  |  |  |  | > 100 | > 100 | > 100 |  |  |  |  |  |  | 
CCN=c1cc2sc3cc(NCC)c(C)cc3nc-2cc1C | 4.16 µM | 4.72 µM | 10.5 µM | 19.9 µM | 7.31 µM | 15.2 |  |  |  | 1.97 µM | 0.133 µM | 0.58 µM | 2.87 µM | 1.77 µM | 2.14 µM | 
O=C(N/N=C/c1ccccc1Cl)c1ccccc1Nc1ccnc(C(F)(F)F)c1 | > 26.5 µM | 9.6 µM | 6.41 µM | 7.13 µM | 9.32 µM | 7.23 |  |  |  | 2.5 µM | 1.83 µM | 1.33 µM | 1.77 µM | 2.16 µM | 1.82 µM | 
CCCCCCCCCCC(O)C1CCC(C(O)CCC(O)C2CCC(CCCCCCC[C@H](O)CC3=C[C@@H](C)OC3=O)O2)O1 (some centres undefined) |  |  |  | 2.26 µM | 8.23 µM |  | > 100 |  | > 100 |  |  |  |  |  |  | > 100
COC(=O)c1c2c(c(C)[n+]([O-])c1C)C(=O)C=C(NCc1ccc(OC)cc1)C2=O | 5.89 µM | 6.55 µM | 4.18 µM | 15.8 µM | 4.85 µM | 21.6 |  |  |  | 2.32 µM | 1.02 µM | 0.994 µM | 4.29 µM | 1.03 µM | 5.32 µM | 
CCOc1ccc(Nc2nc(-c3ccc4c(c3)NC(=O)CO4)cs2)cc1 | > 100 µM | 32.8 µM | 10.4 µM | 20.7 µM | > 100 µM | > 100 |  |  |  | 30.8 µM | 3.04 µM | 1.94 µM | 2.56 µM | 4.12 µM | 22.5 µM | 
O=CN1N=C(c2ccc(Cl)cc2)CC1c1cccc(Nc2ccnc3cc(Cl)ccc23)c1 (centres undefined) | > 100 µM | > 100 µM | 17.7 µM | 15.4 µM | > 100 µM | > 100 |  |  |  | 2.8 µM | 1.69 µM | 0.817 µM | 1.78 µM | 0.784 µM | 3.23 µM | 
CCCN1CCN(c2ccc3nc(-c4ccc5nc(-c6cc(OC)ccc6OC)[nH]c5c4)[nH]c3c2)CC1 | 3.4 µM | 4.04 µM | 54.1 µM | 36.1 µM | 4.29 µM | 55.6 |  |  |  | 1.89 µM | 1.75 µM | 21.6 µM | 15.7 µM | 1.99 µM | 20.1 µM | 
COc1ccc(CNc2c3ccccc3nc3ccc(OC)cc23)cc1 | 10.9 µM | 11.8 µM | 18.9 µM | 15.8 µM | 7.52 µM | 8.68 |  |  |  | 3.16 µM | 2.8 µM | 3.54 µM | 4.25 µM | 2.22 µM | 2.85 µM | 
COC1OC(C)C(O)CC1OS(=O)(=O)c1ccc(C)cc1 (centres undefined) |  |  |  |  |  |  |  | > 100 | > 100 |  |  |  |  |  |  | > 100
CCCCc1ccc(-n2c3nc(=O)n(C)c(=O)c-3nc3ccccc32)cc1 |  |  |  |  |  |  |  | 18.5 | 2.87 |  |  |  |  |  |  | 26.4
COc1cccc(-c2nc3sccn3c2-c2ccnc(NCCNS(=O)(=O)c3ccccc3)c2)c1 | > 100 µM | > 100 µM | 4.96 µM | 8.67 µM | 23.9 µM | > 100 |  |  |  | 2.98 µM | 1.68 µM | 0.776 µM | 2.29 µM | 2.66 µM | 3.7 µM | 
Nc1ncn(C2C=C(CO)C(O)C2O)c(=O)n1 (centres undefined) |  |  |  |  |  |  | > 100 |  | > 100 |  |  |  |  |  |  | > 100
O=P([O-])(O)OP(=O)([O-])O.[NH-][C@@H]1CCCC[C@H]1[NH-].[Pt+4] | > 100 µM | > 100 µM | > 100 µM and 39.5 µM | > 100 µM | > 100 µM | > 100 |  |  |  | 25.9 µM and 12.2 µM | > 100 µM and 20.3 µM | 18.4 µM and 4.82 µM | > 100 µM and 30.5 µM | 38.4 µM and 5.2 µM | > 100 µM and 56.5 µM | 
COC(=O)C(C)N(C)C(=O)[C@H](CC(N)=O)N(C)C(=O)[C@@H]1CCCN1C(=O)[C@H](C(C)C)N(C)C(=O)C(C(C)C)N(C)C(=O)[C@@H](NC(=O)OC(C)(C)C)C(C)C (some centres undefined) (Boc-V[ξNMeV][NMeV]P[NMeN][ξNMeA]-OMe) | > 50 µM | 50 µM | > 50 µM | > 50 µM | > 50 µM |  | > 100 |  | > 100 |  |  |  |  |  |  | > 100
CC1=C2C[C@H]3[C@@H](CC=C4C[C@@H](O)CC[C@@]43C)[C@@H]2CC[C@]12O[C@@H]1C[C@H](C)CN[C@H]1[C@H]2C | 50 µM and 61.6 µM | 50 µM and 59.6 µM | 32.8 µM and 34.9 µM | 50 µM and > 100 µM | 50 µM and 47.5 µM | > 100 |  |  |  | 27.9 µM and 25.8 µM | 22.1 µM and 20.2 µM | 13.3 µM and 16.7 µM | 31 µM and 52.1 µM | 38.5 µM and 20.3 µM | > 50 µM and 35 µM | 
Nc1nc(=S)[nH]c(C(=O)Nc2ccc(Cl)c(Cl)c2)c1-c1ccc(Cl)cc1 |  |  |  |  |  |  | > 100 | > 100 | > 100 |  |  |  |  |  |  | 
O=S(=O)(c1ccc(N=C2NN=C(c3c[nH]c4ccccc34)CS2)cc1)N1CCOCC1 | > 100 µM | > 100 µM | 78.6 µM | 11.3 µM | > 100 µM | > 100 |  |  |  | > 100 µM | 10.3 µM | 3.56 µM | 2.86 µM | 20.6 µM | 31.4 µM | 
Cc1cc(N2CCN(c3ccnc4cc(Cl)ccc34)CC2)nc(NC2CCCCC2)n1 | 11.2 µM | 3.02 µM | 4.7 µM | 3.28 µM | 3.97 µM | 6.62 |  |  |  | 3.51 µM | 1.47 µM | 1.89 µM | 1.66 µM | 1.91 µM | 2.1 µM | 
Cc1cc2cc3c(C)cc(=O)oc3c(C)c2o1 | > 100 µM | > 100 µM | > 100 µM | > 100 µM | > 100 µM | > 100 |  |  |  |  |  |  |  |  |  | 
